Source: ChEMBL document CHEMBL4732263 (Bioorg Med Chem, 2021)
Converted amounts (≈) assume the structure as drawn.

Legend:
in vitro [1] = settings: human, Caco-2
in vitro [2] = settings: human, Caco-2; remark: listed apart in the source
in vitro [3] = settings: human, Caco-2; remark: listed apart in the source
in vitro [4] = settings: mouse, liver microsomes
physchem [5] = settings: HCl, pH 2, pH 2
in vitro [6] = settings: human, liver microsomes
[7] = human, microsomes, 1 h, 1 µM
physchem [8] = settings: octanol/water, pH 7.4
in vitro [9] = settings: human, liver microsomes; remark: listed apart in the source
[10] = mouse, microsomes, 1 h, 1 µM
physchem [11] = settings: PBS, pH 6.5, pH 6.5
in vitro [12] = settings: mouse, liver microsomes; remark: listed apart in the source
[13] = octanol/water, pH 7.4

Papp A→B at 2 h, 20 µM (in vitro [1]) [×10⁻⁶ cm/s]	efflux ratio at 2 h, 20 µM (in vitro [2])	Papp B→A at 2 h, 20 µM (in vitro [3]) [×10⁻⁶ cm/s]	microsomal CLint at 1 h, 1 µM (in vitro [4]) [µL/min/mg]	solubility kinetic (physchem [5]) [µg/mL]	half-life at 1 h, 1 µM (in vitro [6]) [min]	CL free [7] [µL/min/mg]	logD (physchem [8])	microsomal CLint at 1 h, 1 µM (in vitro [9]) [µL/min/mg]	CL free [10] [µL/min/mg]	solubility kinetic (physchem [11]) [µg/mL]	half-life at 1 h, 1 µM (in vitro [12]) [min]	SMILES	logD [13]
1.4	8.4	12	–	–	–	–	–	–	–	–	–	COC(=O)c1ccccc1-c1c2ccc(=N)cc-2oc2cc(N)ccc12	–
–	–	–	66	25 (≈ 59.3 µM)	76	355	> 5.3	23	1020	3.1 (≈ 7.36 µM)	26	N=C(N)NC(=O)c1nc(-c2ccc(C(F)(F)F)cc2)c(N2CCCCCC2)nc1N	–
–	–	–	138	50 (≈ 146 µM)	50	687	–	35	687	6.3 (≈ 18.3 µM)	13	N=C(N)NC(=O)c1nc(-c2ccco2)c(N2CCCCCC2)nc1N	–
–	–	–	83	12.5 (≈ 30.5 µM)	62	433	> 5.3	28	1283	3.1 (≈ 7.57 µM)	21	N=C(N)NC(=O)c1nc(-c2cc3ccccc3s2)c(N2CCCCCC2)nc1N	–

SMILES	Papp A→B at 2 h, 20 µM (in vitro [1]) [×10⁻⁶ cm/s]	efflux ratio at 2 h, 20 µM (in vitro [2])	Papp B→A at 2 h, 20 µM (in vitro [3]) [×10⁻⁶ cm/s]	microsomal CLint at 1 h, 1 µM (in vitro [4]) [µL/min/mg]	solubility kinetic (physchem [5]) [µg/mL]	half-life at 1 h, 1 µM (in vitro [6]) [min]	CL free [7] [µL/min/mg]	logD (physchem [8])	microsomal CLint at 1 h, 1 µM (in vitro [9]) [µL/min/mg]	CL free [10] [µL/min/mg]	solubility kinetic (physchem [11]) [µg/mL]	half-life at 1 h, 1 µM (in vitro [12]) [min]	logD [13]
N=C(N)NC(=O)c1nc(-c2cncnc2)c(N2CCCCCC2)nc1N	–	–	–	17	> 100	86	32	–	20	27	12.5 (≈ 35.2 µM)	100	2.8
